# Patent US7973219B2, “Method for producing transgenic plants resistant to weed control compounds which disrupt the porphyrin pathways of plants” (Sumitomo Chemical Company, Limited, priority 1998, dated 2011)
# Legend:
# [1] = tested on: E. coli BT3/pACYCSP+pHASYS strain; assay: Growth of E. coli BT3/pACYCSP+pHASYS with herbicidal compound; assay type: cell-based, Escherichia coli; details: 1 ppm, 18 hours culture, Table 15
# From the text: According to the description of Gibson, L. C. D. et al., Proc. Natl. Acad. Sci. USA, 92; p 1941 (1995), the DNA fragment containing bchH gene prepared in Example 1 was digested with the restriction enzymes NdeI and BglII. The resultant DNA fragment was inserted between NdeI restriction site and BamHI restriction site of expression vector pET11a (manufactured by Stratagene) to obtain plasmid pETBCH (FIG. 1). This plasmid pETBCH was introduced into E. coli BL21(DE3) strain competent cells (manufactured by Stratagene) according to the manual attached to the competent cells to obtain E. coli BL21(DE3)/pETBCH strain. The strain was inoculated into 1.5 ml LB liquid culture medium (1% tryptone, 0.5% yeast extract, 0.5% NaCl) containing 100 μg/ml ampicillin in a tube (14×10 mm), and the tube was covered with aluminum foil (hereinafter referred to as dark conditions), cultured with shaking at 37° C. under light of fluorescent lamp (about 8000 lux). When the absorbance at 600 nm of the liquid culture medium became about 0.6, isopropyl β-D-thiogalactopyranoside (IPTG) was added to the liquid culture medium so that the final concentration was 0.4 mM, and the culture was continued for about additional 20 hours. […]
# [2] = tested on: tobacco into which the gene encoding the variant Chlamydomonas reinhardtii PPO was introduced; assay: Leaf piece chlorophyll test, tobacco with gene encoding variant Chlamydomonas reinhardtii PPO; assay type: in vivo; details: Table 10; for Resistant level to test compound: same manner as Example 6 (0.3 ppm), treated vs untreated leaf pieces; for Total chlorophyll content treated-leaf: same manner as Example 6 (0.3 ppm, 7 days in light)
# From the text: The tobacco leaves into which bchH gene was introduced and control recombinant tobacco leaves obtained in Example 5 were collected and each leaf was divided into the right and left equivalent pieces along the main vein, respectively. To one piece was applied an aqueous solution containing 0.3 ppm PPO inhibitory-type herbicidal compound of Structure 8, while, to the other piece was not applied the compound. These leaf pieces were placed on MS medium containing 0.8% agar and allowed to stand at room temperature for 7 days in light place. Then, each leaf piece was ground with pestle and mortar in 5 ml of 80% aqueous acetone solution to extract chlorophyll. The extract liquid was diluted with 80% aqueous acetone solution and the absorbance was measured at 750 nm, 663 nm and 645 nm to calculate total chlorophyll content according to the method described by Macknney G., J. Biol. Chem. (1941) 140, p 315. The results obtained from 4 clones of tobacco into which bchH gene was introduced (BCH1 to 4) and control recombinant tobacco is shown in Table 4. In the table, the resistant level to the herbicidal compound was represented by percentages of the total chlorophyll content of leaf pieces treated with herbicidal compound to that of untreated leaf pieces.
# Leaf pieces of tobacco cultured sterilely were infected with the Agrobacterium strain and, according to the same manner as in Example 5, tobacco into which the gene encoding the variant Chlamydomonas reinhardtii PPO was introduced was obtained.
# The level of resistance to the PPO-inhibitory type herbicidal compound represented by Structure 8 was confirmed quantitatively by testing tobacco into which the gene encoding the variant Chlamydomonas reinhardtii PPO prepared in Example 18 was introduced according to the same manner as in Example 6. The results obtained from 4 clones (CRP 1-4) of tobacco into which the gene encoding the variant Chlamydomonas reinhardtii PPO was introduced and control recombinant tobacco is shown in Table 10. In the table, the resistant levels to the herbicidal compound are represented by percentages of the total chlorophyll content of leaf pieces treated with the herbicidal compound to that of untreated leaf pieces.
smiles,measurement,setting,value
C#CCOc1cc(N2C(=O)C3=C(CCCC3)C2=O)c(F)cc1Cl [Structure 8],Relative absorbance,[1]; in the dark,0.96
same,Relative absorbance,[1]; in the light,0.65
same,Resistant level to test compound,[2]; clone CRP-1,121%
same,Total chlorophyll content treated-leaf,[2]; clone CRP-1,1.54 mg/g-fresh weight
same,Resistant level to test compound,[2]; clone CRP-2,111%
same,Total chlorophyll content treated-leaf,[2]; clone CRP-2,1.67 mg/g-fresh weight
same,Resistant level to test compound,[2]; clone CRP-3,101%
same,Total chlorophyll content treated-leaf,[2]; clone CRP-3,1.11 mg/g-fresh weight
same,Resistant level to test compound,[2]; clone CRP-4,99.4%
